Results on six molecules are retold here after publication PMC4184853, “Biohybrid Polymer-Antimicrobial Peptide Medium against Enterococcus faecalis” (PLoS ONE, 2014).

Read-outs that look alike come from different tables or passages of the source. Non-standard residues stand in square brackets, D forms with d. Residues, ends and D or L forms follow the SMILES beside them. *: point of attachment. Palmitoyl = CCCCCCCCCCCCCCCC(=O)*

Common to all, as to assay type: cell-based, Enterococcus faecalis
Assay [1] deals with E. faecalis (ATCC #v583). Here is the method: (§1) E. faecalis (ATCC #v583), was cultured overnight in 5 ml brain-heart infusion (BHI) (Difco, Detroit, MI, USA) broth supplemented with 2 mg/ml vancomycin (Sigma-Aldrich), at 37°C under aerobic conditions. The top 4 ml were transferred to a fresh test tube and the optical density (OD) was determined according to the specific experiment.
The antibacterial activity of the peptides was examined using the microdilution assay. Briefly, the bacterial suspension (at OD 0.3) was diluted at a ratio of 1∶1000. Aliquots of 150 µl of bacterial suspension were added to 50 µl of peptide dilutions in phosphate buffered saline (PBS) (Sigma-Aldrich) (in triplicate for each concentration) in a 96-well plate (Nunc 96 microtiter plates, Roskilde, Denmark). The optical density (595 nm) in each well was recorded every 20 min using a microplate reader (VERSAmax tunable microplate reader, molecular devices, Sunnyvale, CA, USA) at 37°C for 18–24 hrs. The minimal inhibitory concentration (MIC) was determined as the concentration which inhibited visible growth after 18–24 hrs.

The test system of assay [2] is E. faecalis biofilm. The assay can be described thus: Antibiofilm activity, ATP bioluminescence. The settings on record: biofilm exposed 72 hrs, 24 well plates; compared with untreated E. faecalis. Here is the method:
(§2) Antibiofilm activity was tested on E. faecalis biofilms grown for 72 hrs. Biofilm was formed in microtiter plates (24 well plates for the ATP bioluminescence assay and 96 well plates for the crystal violet biomass assay and confocal laser spectroscopy). Saliva was collected from one donor and DL-Dithiolthreitol (DTT) (Thermo Scientific, Abu-Gosh, Israel) was added to 2.5 mM. The suspension was kept at 4°C for 10 min and then centrifuged for 15 min at 6,500×g. The supernatant was transferred to a fresh sterile tube and diluted to 25% with sterile double distilled water (DDW). The diluted saliva was disinfected using a 0.2 µm vacuum-driven filter (0.22 µm, […], Jet biofil, Belgium). […] Bacterial metabolism in the attached biofilm was assessed using ATP bioluminescence. Biofilm mass was measured using crystal violet as described below.
Bacterial killing was evaluated by measuring intracellular ATP levels, an energy parameter commonly used as an indicator of cell injury and viability. […] ATP levels were determined using an ATP bioluminescence assay kit (CLS 2, Roch Diagnostics, Mannheim, Germany). In a 96 microtiter plate designed for luminescence assay (Thermo Scientific, NUNC, 96-well optical Btm Plt white, Rochester, NY, USA) a 100 µl volume of the samples was added to 6 wells for each tested group. […]

In assay [3] the test system is E. faecalis biofilm. The assay can be described thus: Bacterial vitality in biofilm, live/dead staining with confocal microscopy. Particulars: 72 hrs contact during biofilm formation. Here is the method:
as §2
Confocal laser scanning microscopy (CLSM) was used to explore the vitality of bacteria in the different depth layers of the biofilm. […] To read the results directly, the wells were coated with emulsion oil to prevent dehydration. Fluorescence emission was detected using a Zeiss LSM 410 confocal laser scanning microscope (Carl Zeiss Microscopy, Jena, Germany). Red fluorescence was measured at 630 nm and green fluorescence at 520 nm; objective lenses: x60/oil, 1.4 numerical aperture. […]

Assay [4] deals with E. faecalis (ATCC #v583). The assay can be described thus: Growth curves with soluble peptide: percent growth reduction and generation time. Particulars: concentrations below 5 µg/ml. Here is the method: as §1
The antibacterial activity of the peptides was examined using the microdilution assay. Briefly, the bacterial suspension (at OD 0.3) was diluted at a ratio of 1∶1000. […] The optical density (595 nm) in each well was recorded every 20 min using a microplate reader (VERSAmax tunable microplate reader, molecular devices, Sunnyvale, CA, USA) at 37°C for 18–24 hrs. The minimal inhibitory concentration (MIC) was determined as the concentration which inhibited visible growth after 18–24 hrs.
The presented data are the mean and standard deviation of triplicates of a representative experiment repeated three times. The growth mean, and multiple comparisons of growth inhibition by AMP (compared with the growth of untreated bacteria) were calculated from each growth curve using Student’s t-test. […]
Figure 1 E. faecalis growth is inhibited by C16-KGGK but not by hBD3. Growth of E. faecalis was measured (see Materials and Methods) in the presence of increasing concentrations of hBD3 (A) or of the lipopeptide KGGK (B). […]

The subject of assay [5] is E. faecalis biofilms. The experiment in a line: Antibiofilm activity, crystal violet biomass assay. The settings on record: biofilm grown 72 hrs in saliva-coated 96 well plates in presence of test material. Here is the method:
as §2
The total biofilm yield was assessed using crystal violet staining as follows. […] The acetic acid was transferred to wells of a new 96-well microtiter plate that was placed in a microplate reader and absorbance (OD595 nm) was measured.
Figure 3 Effect of the antimicrobial peptides on the development of E. faecalis biofilms. […] The biofilm was stained with 1% crystal violet measured at OD 595 nm (see Materials and Methods). […]

Usually MIC stands for the lowest concentration that inhibits growth of the organism. `CC(C)C[C@H](NC(=O)[C@H](CC(C)C)NC(=O)[C@@H](CCCCN)NC(=O)[C@H](CC(C)C)NC(=O)[C@H](CC(C)C)NC(=O)[C@H](CCCCN)NC(=O)[C@@H](CCCCN)NC(=O)[C@@H](CC(C)C)NC(=O)[C@H](CC(C)C)NC(=O)[C@@H](CCCCN)NC(=O)[C@H](CCCCN)NC(=O)[C@H](CC(C)C)NC(=O)[C@@H](CC(C)C)NC(=O)[C@H](CCCCN)NC(=O)[C@@H](N)CC(C)C)C(N)=O` [Amp-1D] (H-LK[dL]LK[dK]L[dL][dK]KLL[dK]LL-NH2; N-terminus assumed) displayed an MIC in assay [1] (ATCC #v583) of more than 25 µg/mL. As to `CCCCCCCCCCCCCCCC(=O)N[C@@H](CCCCN)C(=O)NCC(=O)NCC(=O)N[C@@H](CCCCN)C(N)=O` [C16-KGGK] (Palmitoyl-KGGK-NH2), the MIC in assay [1] (ATCC #v583) lay within 4 to 5 µg/mL. In addition, the “concentration causing complete growth inhibition” value in assay [1] (planktonic E. faecalis, microdilution, 18–24 hrs) was 5 µg/mL. Further, the “ATP levels in biofilm (luminescence)” value in assay [2] is given as “relatively low compared with that in the untreated control”. In addition, the “vitality of biofilm bacteria (live/dead stain, CLSM)” value in assay [3] was “induced death in the biofilm bacteria”. Also, in assay [4], the “growth of E. faecalis at sub-inhibitory concentrations” value was “accelerated”. Molecule `CCCCCCCCCCCCCCCC(=O)N[C@@H](CCCCN)C(=O)N[C@@H](CC(C)C)C(=O)N[C@@H](CC(C)C)C(=O)N[C@@H](CCCCN)C(N)=O` [C16-KLLK] (Palmitoyl-KLLK-NH2) came in with an MIC in assay [1] (ATCC #v583) of 6 to 12.5 µg/mL.

In turn, `CCCCCCCCCCCCCCCC(=O)N[C@@H](CCCCN)C(=O)N[C@@H](CCCCN)C(=O)N[C@@H](CCCCN)C(N)=O` [C16-KKK] had a minimal inhibitory concentration (MIC) in assay [1] (ATCC #v583) of 6 to 12.5 µg/mL. The “anti-biofilm effect (biofilm mass, crystal violet, OD 595 nm)” value in assay [5] was “showed anti-biofilm activity”. With `CCCCCCCCCCCCCCCC(=O)N[C@@H](CCCCN)C(=O)N[C@@H](C)C(=O)N[C@@H](C)C(=O)N[C@@H](CCCCN)C(N)=O` [C16-KAAK] (Palmitoyl-KAAK-NH2), the MIC in assay [1] (ATCC #v583) lay within 12.5 to 25 µg/mL. The molecule “GIINTLQKYYCRVRGGRCAVLSCLPKEEQIGKCSTRGRKCCRRKK [hBD3, Human recombinant β-defensin 3 obtained from PeproTech, reference compound]” displayed an MIC in assay [1] (planktonic E. faecalis ATCC v583, BHI, 37°C, 18–24 hrs, OD 595 nm, triplicate per concentration) of more than 20 µg/mL.
